≈ marks a conversion by molar mass, not a printed value. Where “and” joins values, the source holds several entries; their conditions need not be identical. Equal values may be shown once.
What was measured:
[1] = Selectivity index, ratio of IC50 for cytotoxicity against mouse RAW264.7 cells to MIC for antitubercular activity against Mycobacterium tuberculosis H37Rv ATCC 27294; assay type: toxicity, cell-based; conditions: for selectivity ratio: RAW264.7 cells, read-out: Selectivity Index
[2] = test system: Mycobacterium tuberculosis; assay: Antitubercular activity against Mycobacterium tuberculosis H37Rv ATCC 27294 assessed as bacterial growth inhibition incubated for 6 days by MTT assay; assay type: functional; conditions: H37Rv ATCC 27294, 144 h, time 6 day
RAW264.7 [3] = assay: Cytotoxicity against mouse RAW264.7 cells assessed as cell growth inhibition incubated for 48 hrs by resazurin staining based fluorometric analysis; assay type: functional; conditions: RAW264.7, 48 h
[4] = Inhibition of recombinant Mycobacterium tuberculosis MurE expressed in Escherichia coli BL21(DE3) cells using UDP-MurNAc-dipeptide as substrate incubated for 30 mins by phosphate release based colorimetric assay; assay type: cell-based
[5] = Inhibition of recombinant Mycobacterium tuberculosis MurE expressed in Pseudomonas putida KT2442 using UDPMurNAc-L-Ala-D-Glu as substrate incubated for 30 mins by HPLC analysis
[6] = Inhibition of Mycobacterium tuberculosis MurE expressed in Escherichia coli BL21(DE3) cells using UDP-MurNAc-dipeptide as substrate incubated for 30 mins by HPLC analysis
[7] = test system: Mycobacterium tuberculosis; assay: Antitubercular activity against Mycobacterium tuberculosis H37Rv ATCC 27294 assessed as bacterial growth inhibition; assay type: functional
[8] = test system: Mycobacterium tuberculosis; assay: (§1) Inhibition of Mycobacterium tuberculosis MBP tagged MurD expressed in Escherichia coli Rosetta-gami (DE3) cells using UDP-GlcNAc as initial substrate pretreated with compound for 15 mins followed by substrate addition measured after 30 mins in presence of ATP by phosphate release based assay relative to control; conditions: time 45.0 min
[9] = test system: Mycobacterium tuberculosis; assay: (§2) Inhibition of N-terminal His-tagged Mycobacterium tuberculosis MurB expressed in Escherichia coli BL21 (DE3) cells using UDP-GlcNAc as initial substrate pretreated with compound for 15 mins followed by substrate addition measured after 30 mins in presence of ATP by phosphate release based assay relative to control; conditions: time 45.0 min
[10] = test system: Mycobacterium tuberculosis; assay: as §2, with “MurC” for “MurB”; conditions: time 45.0 min
[11] = test system: Mycobacterium tuberculosis; assay: as §2, with “MurA” for “MurB”; conditions: time 45.0 min
[12] = test system: Mycobacterium tuberculosis; assay: Inhibition of Mycobacterium tuberculosis MurC at 100 uM relative to control
[13] = test system: Mycobacterium tuberculosis; assay: Inhibition of Mycobacterium tuberculosis MurD at 100 uM relative to control
[14] = test system: Mycobacterium tuberculosis; assay: Inhibition of Mycobacterium tuberculosis MurE at 100 uM relative to control
[15] = test system: Mycobacterium tuberculosis; assay: Inhibition of Mycobacterium tuberculosis MurF at 100 uM relative to control
[16] = as §2, with “MurE” for “MurB”
[17] = as §1, with “MurF” for “MurD”
[18] = Inhibition of Mycobacterium tuberculosis MurE using UDPMurNAc-L-Ala-D-Glu as substrate incubated for 30 mins by phosphate release based colorimetric assay
[19] = test system: Mycobacterium tuberculosis; assay: Antitubercular activity against Mycobacterium tuberculosis H37Rv ATCC 9360 assessed as bacterial growth inhibition incubated for 2 weeks by spot culture growth inhibition assay; assay type: functional; conditions: H37Rv ATCC 9360, 336 h
[20] = test system: Mycobacterium tuberculosis; assay: Antimycobacterial activity against Mycobacterium tuberculosis H37Rv ATCC 27294 assessed as inhibition of bacterial growth incubated for 2 weeks by spot culture growth inhibition assay; assay type: functional; conditions: H37Rv ATCC 27294, 336 h
[21] = Inhibition of Mycobacterium tuberculosis MurE expressed in Escherichia coli BL21(DE3) cells by phosphate release based colorimetric assay
RAW264.7 [22] = assay: Cytotoxicity against mouse RAW264.7 cells assessed as cell growth inhibition; assay type: functional, cell-based

## COc1c(O)c2c3c(c1OC)CCN[C@H]3Cc1cc3c(cc1-2)OCO3 [listing 1 of 2 here]
[1]
  Selectivity Index: 0.97
[2]
  MIC: 64 µg/mL (≈ 187 µM)
RAW264.7 [3]
  IC50: 62 µg/mL (≈ 182 µM)
[4]
  IC50: 67 µM and < 100 µM

## NNC(=O)c1ccncc1 [ISONIAZID]
[5]
  IC50: > 1000 µM
[4]
  IC50: > 1000 µM

## CCCCCCCCCCC/C=C/C1CC(=O)c2ccccc2N1C (configuration not stated)
[1]
  selectivity ratio: 1
RAW264.7 [3]
  IC50: 24 µg/mL (≈ 70.3 µM)
[6]
  IC50: 140 µM
[7]
  MIC: 58.9 µM (≈ 20.1 µg/mL)
[4]
  IC50: 52 µM

## COc1c(O)c2c3c(c1OC)CCN[C@H]3Cc1cc3c(cc1-2)OCO3 [listing 2 of 2 here]
[8]
  inhibition: 88%
[9]
  inhibition: > 100%
[10]
  inhibition: 66%
[11]
  inhibition: 75%

## CC(=O)N[C@H]1[C@H](OCc2cn(C[C@@H]3O[C@H](n4ccc(=O)[nH]c4=O)[C@@H](O)[C@H]3O)nn2)O[C@H](Cn2cc(CO[C@@H]3O[C@H](CO)[C@@H](O)[C@H](O)[C@H]3NC(C)=O)nn2)[C@@H](O)[C@@H]1O
[12]
  inhibition: 1%
[13]
  inhibition: 5.2%
[14]
  inhibition: 12.5%
[15]
  inhibition: 48.9%

## Oc1ccc(Br)c2c1C(Cc1cccc3c1OCO3)NCC2 (configuration not stated)
[5]
  IC50: < 111 µM

## CCCCCCCCC/C=C\CCCC1CC(=O)c2ccccc2N1C (configuration not stated)
[16]
  IC50: 17 µM
[8]
  inhibition: 85%
[9]
  inhibition: > 100%
[1]
  selectivity ratio: 1
[10]
  inhibition: 73%
[17]
  IC50: 25.8 µM
RAW264.7 [3]
  IC50: 24 µg/mL (≈ 67.5 µM)
[11]
  inhibition: > 100%
[6]
  IC50: 159 µM
[7]
  MIC: 70.7 µM (≈ 25.1 µg/mL)
[4]
  IC50: 52 µM

## CCCCCCCC/C=C\CCCCC1CC(=O)c2ccccc2N1C (configuration not stated)
[1]
  selectivity ratio: 1
RAW264.7 [3]
  IC50: 24 µg/mL (≈ 67.5 µM)
[6]
  IC50: 95 µM
[7]
  MIC: 28.3 µM (≈ 10.1 µg/mL)
[4]
  IC50: 36 µM

## C=CC(C)(C)C1C(=O)CC(c2ccccc2)OC1OC (configuration not stated)
[18]
  IC50: 320 µM
[19]
  MIC: 75 µg/mL (≈ 273 µM)

## CCCCCCCC/C=C/C1CC(=O)c2ccccc2N1C (configuration not stated)
[1]
  selectivity ratio: 1
RAW264.7 [3]
  IC50: 24 µg/mL (≈ 80.1 µM)
[6]
  IC50: 207 µM
[7]
  MIC: 84 µM (≈ 25.2 µg/mL)
[4]
  IC50: 70 µM

## Oc1ccc(Br)c2c1C(c1cccc3c1OCO3)NCC2 (configuration not stated)
[5]
  IC50: < 111 µM

## COC(=O)N1CCc2c(OC)c(OC)c(O)c3c2[C@@H]1Cc1cc2c(cc1-3)OCO2
[1]
  selectivity ratio: 0.52
[2]
  MIC: 128 µg/mL (≈ 320 µM)
RAW264.7 [3]
  IC50: 67 µg/mL (≈ 168 µM)
[4]
  IC50: 75 µM and < 100 µM

## COc1ccc(Br)c2c1C(c1cccc3c1OCO3)NCC2 (configuration not stated)
[5]
  IC50: 165 µM
[20]
  MIC: 106 µM (≈ 38.4 µg/mL)

## Oc1ccc(I)c2c1C(Cc1cccc3c1OCO3)NCC2 (configuration not stated)
[5]
  IC50: < 111 µM
[20]
  MIC: 71 µM (≈ 29.1 µg/mL)

## COc1c(O)c2c3c(c1OC)CCN[C@H]3Cc1cc3c(cc1-2)OCO3.Cl
[16]
  IC50: 61.6 µM
[1]
  Selectivity Index: 12
[17]
  IC50: 45.4 µM
[2]
  MIC: 4 µg/mL
RAW264.7 [3]
  IC50: 47 µg/mL
[4]
  IC50: 57 µM

## CCCCCCCCCC#CCC1CC(=O)c2ccccc2N1CCCC (configuration not stated)
[21]
  IC50: 235 µM

## COc1c(O)c2c3c(c1OC)CCNC3Cc1cc3c(cc1-2)OCO3 (configuration not stated)
[5]
  IC50: 820 µM
RAW264.7 [22]
  IC50: 352 µM
[20]
  MIC: 84 µM (≈ 28.7 µg/mL)

## CC(=O)N[C@H]1[C@H](OCc2cnnn2C[C@H]2O[C@@H](n3ccc(=O)[nH]c3=O)[C@H](O)[C@@H]2O)O[C@H](Cn2cc(C(N)=O)nn2)[C@@H](O)[C@@H]1O
[12]
  inhibition: 12.1%
[13]
  inhibition: 23%
[14]
  inhibition: 6.1%
[15]
  inhibition: 41.8%

## CCCCCCCCCC/C=C/C1CC(=O)c2ccccc2N1C (configuration not stated)
[1]
  selectivity ratio: 1
RAW264.7 [3]
  IC50: 24 µg/mL (≈ 73.3 µM)
[6]
  IC50: 187 µM
[7]
  MIC: 30.7 µM (≈ 10.1 µg/mL)
[4]
  IC50: 72 µM

## CCCCCCCCCCCC#CCC1CC(=O)c2ccccc2N1CCCC (configuration not stated)
[21]
  IC50: 200 µM
